Assay [1] addresses T1, Aβ42-α7 nAChR complexes (Homo sapiens, UniProt P36544).
T1 construct: dissociation of the complexes already present in the diseased human tissues; tissue Harvard Brain Tissue Resource Center and Analytical Biological Services; host or cells: post-mortem frontal cortex synaptosomes of Alzheimer's disease patients
The experiment in a line: Dissociation of Aβ42-α7 nAChR complexes already present in frontal cortex synaptosomes of Alzheimer's disease patients (immunoprecipitation, Western blot). The class given is binding. Here is the method: FIG. 3: Western blot illustrating the dissociation, caused by S 24795, of Aβ42-α7 nAChR complexes obtained post-mortem from frontal cortex synaptosomes of Alzheimer's disease patients or control subjects. The Aβ42-α7 nAChR complexes are incubated in the medium (Krebs-Ringer) on its own or in the presence of S 24795 (1, 10, 30 or 100 μM) for 10 minutes and then in the presence or absence of Aβ42 (100 nM).
FIG. 4: Quantification of the dissociation of the interaction of α7 nAChR receptors associated with Aβ42 in human frontal cortex synaptosomes obtained post-mortem from Alzheimer's disease patients and control subjects and incubated with S 24795 (from 1 to 100 μM) and then in the presence or absence of Aβ42 (100 nM). *: p<0.01 for controls and Alzheimer's disease patients, Newman-Keuls test for multiple comparisons.
(§1) 100 mg of post-mortem frontal cortex ground on ice are homogenised in 10 volumes of 10 mM HEPES pH 7.4 maintained on ice and oxygenated in the presence of […] sucrose and 0.1 mM EDTA and then mixed in a Teflon/glass tissue grinder at 4° C. in a homogenisation solution containing 25 mM HEPES pH 7.5, 1 mM EDTA, 50 μg/ml of leupeptin, 10 μg/ml of aprotinin, 2 μg/ml of soy trypsin inhibitor, 0.04 mM PMSF, a mixture of phosphatase inhibitor proteins, and 0.2% […].
The homogenate is centrifuged, firstly, at 1000 g and 4° C. for 10 minutes. The supernatant obtained in that first centrifugation is centrifuged for a second time at 15000 g for 30 minutes to obtain a sediment of synaptosomes.
The sediment of synaptosomes is washed twice by suspension in 10 ml of Krebs-Ringer solution, maintained on ice, comprising 25 mM HEPES pH 7.4, 118 mM NaCl, 4.8 mM KCl, 25 mM NaHCO3, 1.3 mM CaCl2, 1.2 mM MgSO4, 1.2 mM KH2PO4, 10 mM glucose, 100 μM ascorbic acid, 50 μg/ml of leupeptin, 10 μg/ml of aprotinin, 2 μg/ml of soy trypsin inhibitor, 0.04 mM PMSF and a mixture of phosphatase inhibitor proteins, aerated for 10 minutes using 95% O2/5% CO2 and then centrifuged again at 15000 g for 10 minutes at 4° C. The washed synaptosomes are then suspended in 1 ml of oxygenated Krebs-Ringer solution and the protein concentration of said synaptosome suspension is determined by the Bradford method.
The human cortex synaptosomes are incubated in an oxygenated Krebs-Ringer solution in the presence of the compound S 24795 at 37° C. for 30 minutes in a total incubation volume of 500 μl. The compound S 24795 is present in the reaction mixture at a concentration of 1 μM, 10 μM, 30 μM or 100 μM. Depending on the experiments being carried out, the synaptosomes are also incubated in the presence of 100 nM Aβ42 or in the presence of the vehicle. […]
In general terms: In western blotting, separated proteins are transferred to a membrane and probed.

The test system of the next assay is α7 nAChR and NMDAR. The experiment in a line: Functional recovery: 45Ca2+ entry into frontal cortex synaptosomes via α7 and NMDA receptors. In kind it is biochemical, human. Here is the method:
FIG. 5: Quantification of the entry of ^45Ca^2+ into human frontal cortex synaptosomes obtained post-mortem from Alzheimer's disease patients and from control subjects and treated with S 24795. The control brain slices are incubated in the presence of Aβ42 (1 μM)—or not—prior to the treatment with S 24795 (10 μM). Calcium entry is brought about either by α7 agonist (PNU282987) or by NMDA added to glycine.
The functional recovery experiments are carried out using brains according to I.2 obtained from patients according to I.1.
The functional recovery brought about by the treatment with S 24795 (10 μM) is evaluated with reference to the calcium influx via α7 and NMDA receptors. It was tested after 1 hour of treatment with S 24795 on control brains exposed to Aβ42 (30 minutes) and on brains of Alzheimer's disease patients. The treatments using Aβ42 (1 μM) and S 24795 (10 μM) are carried out on slices of cortex obtained from those brains. Synaptosomes are then prepared as described in I.4. In order to evaluate the Ca^2+ influxes via the α7 and NMDA receptors, the synaptosomes are incubated in the presence of ^45Ca^2+ (5 μM) for 5 minutes at 37° C. in Krebs-Ringer medium. The Ca^2+ fluxes are brought about for α7 selective α7nAChR receptor agonist, PNU282987 (0.1, 1 and 10 μM), and for the NMDAR receptors by the addition of NMDA (0.1, 1, 10 μM) and glycine (1 μM). The reaction is stopped by the addition of Krebs-Ringer (4° C.) containing EGTA but not containing calcium. After two washings, the synaptosomes are lysed by sonication in ethanol (95%) and the radioactivity is counted by liquid scintillation spectrometry. The specificity of the calcium influxes is checked by means of the addition of selective inhibitors of the α7 receptor (α-bungarotoxin) and of the NMDA receptor (AP-5).

Assay [2] concerns the target T1, Aβ42-α7 nAChR complexes. Put plainly: Inhibition of formation of Aβ42-α7 nAChR complexes in post-mortem frontal cortex synaptosomes (immunoprecipitation, Western blot). In kind it is binding. The following applies: S 24795 30 μM added before Aβ peptides (Aβ42 100 nM); non-diseased control human cortex synaptosomes. Here is the method: FIG. 1: Western blot illustrating the inhibition, by S 24795, of Aβ42-α7 nAChR complexes obtained post-mortem from frontal cortex synaptosomes of Alzheimer's disease patients or control subjects. The Aβ42-α7 nAChR complexes are incubated in the medium (Krebs-Ringer) on its own or in the presence of S 24795 (30 μM) for 10 minutes, followed by incubation in the presence of Aβ42 peptide for 30 minutes.
FIG. 2: Quantification of the inhibition of the formation of Aβ42-α7 nAChR complexes in human frontal cortex synaptosomes obtained post-mortem from Alzheimer's disease patients and control subjects and incubated with S 24795 (30 μM)—or not—and then with Aβ42 peptides (100 nM). *: p<0.01 for controls and Alzheimer's disease patients, Newman-Keuls test for multiple comparisons.
as §1
The homogenate is centrifuged, firstly, at 1000 g and 4° C. for 10 minutes. […]

T1 sequence (P36544 23-502, one chain of several): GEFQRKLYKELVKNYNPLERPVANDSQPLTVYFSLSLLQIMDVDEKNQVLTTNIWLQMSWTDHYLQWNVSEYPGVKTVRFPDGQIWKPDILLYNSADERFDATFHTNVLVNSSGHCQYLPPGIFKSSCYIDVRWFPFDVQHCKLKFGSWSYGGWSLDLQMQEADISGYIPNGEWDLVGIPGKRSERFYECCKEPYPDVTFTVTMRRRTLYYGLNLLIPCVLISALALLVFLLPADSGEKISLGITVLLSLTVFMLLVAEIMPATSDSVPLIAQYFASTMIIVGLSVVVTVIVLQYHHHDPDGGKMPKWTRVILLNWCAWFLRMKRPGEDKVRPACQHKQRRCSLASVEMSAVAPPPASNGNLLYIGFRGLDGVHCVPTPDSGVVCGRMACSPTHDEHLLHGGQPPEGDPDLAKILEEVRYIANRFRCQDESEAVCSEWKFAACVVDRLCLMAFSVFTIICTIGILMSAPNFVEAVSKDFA

As for “1-(4-bromophenyl)-2-(1-methyl-2-pyridiniumyl)-1-ethanone chloride or iodide [S 24795]”, the “reduction in the Aβ42-α7 nAChR complexes previously present in the diseased brain extracts” value on Aβ42-α7 nAChR complexes [1] (S 24795 1 μM, absence of exogenous Aβ peptides, Alzheimer's disease synaptosomes) is “about 22%”; on Aβ42-α7 nAChR complexes [1] (S 24795 10, 30 and 100 μM, absence of exogenous Aβ peptides, dose-dependent), “substantial”. Besides, on Aβ42-α7 nAChR complexes [1] (S 24795 at the highest concentration (100 μM), absence of exogenous Aβ peptides, Alzheimer's disease synaptosomes, p<0.01), the “reduction of non-dissociated Aβ42-α7 nAChR complexes” value is roughly 63%. For the same substance, at Aβ42-α7 nAChR complexes [1] (synaptosomes from cortices of Alzheimer's disease patients, S 24795 30 μM, Aβ peptides added (FIG. 1)), the “reduction in the amount of Aβ42-α7 nAChR complexes present in the diseased brains” value is given as “substantial reduction”. The “Ca2+ entry level as % of the control values without Aβ” value with α7 nAChR and NMDAR (after S 24795 10 μM, brains of Alzheimer's disease patients and of controls pretreated with Aβ (comparable levels)) is on record as “about 65%”. In the assay with α7 nAChR and NMDAR (brains of Alzheimer's disease patients, S 24795 10 μM for 1 hour), the “increase in Ca2+ entry compared to the brains of untreated Alzheimer's disease patients” value is listed as roughly 75%. The “re-establishment of Ca2+ entry” value in the assay with α7 nAChR and NMDAR (control brain slices exposed to Aβ42 (1 μM), then S 24795 10 μM for 1 hour) is “substantial re-establishment”. Also, the “reduction of the amount of Aβ42-α7 nAChR complexes formed” value on Aβ42-α7 nAChR complexes [2] came out at 92%.

For the origin of these results see US20100197740A1, “Method of Screening Compounds Having Anti-Amyloid Properties” (LES LABORATOIRES SERVIER, priority 2006, published 2010).
